What was measured:
Type in all cases: in vivo
Piemarker [1] = experiment: Herbicidal activity test for indoor post-emergence spraying on stems and leaves; parameters: key: grade level by weed remaining vs blank control, e.g. 5 = 10.1-15%; settings: 150 g a.i./ha, visual inspection 21 days after treatment
How it was run: (§1)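 Post-emergence stem and leaf spray in an indoor test following NY/T 1155.4-2006, with weeds sown and grown in a greenhouse. Effect scored visually 21 days after treatment as graded levels, each level set by the percentage of weed remaining relative to the blank control area.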

Humulus scandens [2] = experiment: as above; parameters: key: grade level by weed remaining vs blank control, e.g. 5 = 10.1-15%; settings: 150 g a.i./ha, visual inspection 21 days after treatment
How it was run: as §1

green bristlegrass [3] = experiment: as above; parameters: key: grade level by weed remaining vs blank control, e.g. 5 = 10.1-15%; settings: 150 g a.i./ha, visual inspection 21 days after treatment
How it was run: as §1

Amaranthus retroflexus [4] = experiment: as above; parameters: key: grade level by weed remaining vs blank control, e.g. 5 = 10.1-15%; settings: 150 g a.i./ha, visual inspection 21 days after treatment
How it was run: as §1

Digitaria sanguinalis [5] = experiment: as above; parameters: key: grade level by weed remaining vs blank control, e.g. 5 = 10.1-15%; settings: 150 g a.i./ha, visual inspection 21 days after treatment
How it was run: as §1

Barnyard grass [6] = experiment: as above; parameters: key: grade level by weed remaining vs blank control, e.g. 5 = 10.1-15%; settings: 150 g a.i./ha, visual inspection 21 days after treatment
How it was run: as §1

Chenopodium album = experiment: Field test for weed control in a corn field; settings: 150 g a.i./ha, after treatment
How it was run: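 A corn-field efficacy trial following GB/T 17980.42-2000 tested post-emergence control of Chenopodium album. Test compounds formulated as 10% emulsifiable concentrates were diluted in water and sprayed at 150 g(a.i.)/ha when the corn had 2 leaves to 5 leaves, on 20 m^2 plots with 4 replicates. Herbicidal activity was rated on a 1-9 scale by damage symptoms and severity.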

green bristlegrass [7] = experiment: Field test for weed control in a corn field; settings: 150 g a.i./ha, after treatment
How it was run: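 Post-emergence weed control was tested in a corn field following GB/T 17980.42-2000. When the corn had 2 leaves to 5 leaves after sowing, 10% emulsifiable concentrates diluted in water were sprayed at 150 g(a.i.)/ha on 20 m^2 plots, four replicates per treatment. Effects on green bristlegrass were scored on a 1-9 damage scale relative to the blank control area.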

Amaranthus retroflexus [8] = experiment: Field test for weed control in a corn field; settings: 150 g a.i./ha, 30 days after treatment
How it was run: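 Field efficacy trial in a corn field following GB/T 17980.42-2000. Test compounds were formulated as 10% emulsifiable concentrates, diluted in water and sprayed post-emergence when corn had 2 to 5 leaves. Each treatment covered 20 m^2 with 4 replicates. A 25% mesotrione oil dispersion served as control. Damage to Amaranthus retroflexus was rated on a 1-9 scale against untreated blank plots.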

Portulaca oleracea = experiment: Field test for weed control in a corn field; settings: 150 g a.i./ha, after treatment
How it was run: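 Field efficacy trial in corn following GB/T 17980.42-2000. Test compounds were prepared as 10% emulsifiable concentrates, diluted in water, and sprayed at 150 g(a.i.)/ha when corn had 2 to 5 leaves after sowing. Plots were 20 m^2 with 4 replicates per treatment. Herbicidal activity was scored on a 1-9 scale from weed damage symptoms and severity.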

goosegrass = experiment: Field test for weed control in a corn field; settings: 150 g a.i./ha, after treatment
How it was run: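 Weed control efficacy against goosegrass was tested in a corn field following GB/T 17980.42-2000. Compounds formulated as 10% emulsifiable concentrates were diluted in water and sprayed post-emergence at 150 g(a.i.)/ha when corn had 2 to 5 leaves, with 4 replicates of 20 m^2 plots. Herbicidal activity was rated on a 1-9 scale by damage symptoms and severity.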

nutgrass flatsedge = experiment: Field test for weed control in a corn field; settings: 150 g a.i./ha, after treatment
How it was run: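 A corn field efficacy trial following GB/T 17980.42-2000 assessed post-emergence control of nutgrass flatsedge. Test compounds were formulated as 10% emulsifiable concentrates, diluted in water, and sprayed at 150 g(a.i.)/ha when the corn had 2 to 5 leaves. Each treatment had 4 replicates on 20 m^2 plots. Herbicidal activity was graded on a 1-9 scale by damage symptoms and severity.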

Acalypha australis = experiment: Field test for weed control in a corn field; settings: 150 g a.i./ha, after treatment
How it was run: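 Post-emergence field trial in a corn field following GB/T 17980.42-2000. Test compounds were formulated as 10% emulsifiable concentrates, diluted in water, and sprayed at 150 g(a.i.)/ha when corn had 2 to 5 leaves, with 4 replicates on 20 m^2 plots. Mesotrione 25% oil dispersion served as the control agent. Weed control was scored on a 1-9 scale.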

Digitaria sanguinalis [9] = experiment: Field test for weed control in a corn field; settings: 150 g a.i./ha, after treatment
How it was run: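 Field trial in a corn field following GB/T 17980.42-2000. Test compounds were formulated as 10% emulsifiable concentrates, diluted in water and sprayed post-emergence at 150 g(a.i.)/ha when corn had 2 to 5 leaves, with 4 replicates on 20 m^2 plots. Control of Digitaria sanguinalis was scored on a 1-9 scale based on weed damage relative to the untreated blank area.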

Solanum nigrum = experiment: Field test for weed control in a corn field; settings: 150 g a.i./ha, 30 days after treatment
How it was run: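 Post-emergence weed control was tested in a corn field following GB/T 17980.42-2000. Compounds were made into 10% emulsifiable concentrates, diluted in water and sprayed at 150 g(a.i.)/ha when corn had 2 to 5 leaves after sowing, in 20 m^2 plots with 4 replicates. Effects on Solanum nigrum were graded on a 1-9 scale relative to the blank control area.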

Convolvulus arvensis = experiment: Field test for weed control in a corn field; settings: 150 g a.i./ha, after treatment
How it was run: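 Field trial of weed control against Convolvulus arvensis in corn, run following GB/T 17980.42-2000. Test agents were formulated as 10% emulsifiable concentrates and sprayed in water at 150 g(a.i.)/ha when corn plants had 2 to 5 leaves. Each treatment was replicated 4 times on 20 m^2 plots, and 25% mesotrione oil dispersion served as the control agent.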

Barnyard grass [10] = experiment: Field test for weed control in a corn field; settings: 150 g a.i./ha, 30 days after treatment
How it was run: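 Corn-field efficacy trial following GB/T 17980.42-2000. Test compounds were formulated as 10% emulsifiable concentrates, diluted in water and sprayed post-emergence at 150 g(a.i.)/ha when corn had 2 to 5 leaves. Each treatment was replicated 4 times on 20 m^2 plots. Barnyard grass control was rated on a 1-9 damage scale.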

Humulus scandens [11] = experiment: Herbicidal activity test for indoor pre-emergence soil treatment; settings: 150 g a.i./ha, visual inspection 21 days after treatment
How it was run: (§2)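 Pre-emergence test following NY/T 1155.3-2006: weed seeds were sown in moistened neutral sandy loam (≤2% organic matter) and covered with 0.5–2.0 cm of soil. After 24 h, the soil was sprayed with a 10% EC diluted in water at 150 g(a.i.)/ha. Damage was scored visually on a 1–9 scale at 21 days.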

Piemarker [12] = experiment: as above; parameters: key: level 1-9; higher = more weed remaining vs blank control; settings: 150 g a.i./ha, visual inspection 21 days after treatment
How it was run: as §2

green bristlegrass [13] = experiment: as above; parameters: key: level 1-9; higher = more weed remaining vs blank control; settings: 150 g a.i./ha, visual inspection 21 days after treatment
How it was run: as §2

Barnyard grass [14] = experiment: as above; parameters: key: level 1-9; higher = more weed remaining vs blank control; settings: 150 g a.i./ha, visual inspection 21 days after treatment
How it was run: as §2

Broadleaf weed = experiment: Post-emergence herbicidal activity test in a paddy field; parameters: key: level scale; higher level = more weed left vs blank control; settings: 150 g a.i./ha (penoxsulam control 250 g(a.i.)/h)
How it was run: (§3)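 Efficacy was visually estimated 15 and 30 days after spraying, grading weed coverage relative to an untreated neighbouring plot (level 2 = 0 to 2.5%, level 9 = 67.6 to 100%). Treatments were 150 g(a.i.)/ha from 10% emulsifiable concentrates applied at the 4-5 leaf rice stage, four repeats of 50 m^2 each.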

Cyperaceae = experiment: as above; parameters: key: level scale; higher level = more weed left vs blank control; settings: 150 g a.i./ha (penoxsulam control 250 g(a.i.)/h)
How it was run: as §3

Gramineae = experiment: as above; parameters: key: level scale; higher level = more weed left vs blank control; settings: 150 g a.i./ha (penoxsulam control 250 g(a.i.)/h)
How it was run: as §3

Amaranthus retroflexus [15] = experiment: Herbicidal activity test for indoor pre-emergence soil treatment; parameters: key: 1-9 levels; higher = more weed remaining vs blank control; settings: 150 g a.i./ha, visual inspection 21 days after treatment
How it was run: as §2

Digitaria sanguinalis [16] = experiment: as above; parameters: key: 1-9 levels; higher = more weed remaining vs blank control; settings: 150 g a.i./ha, visual inspection 21 days after treatment
How it was run: as §2

With `COc1ccc(OC)c(C(=O)NCc2cccc(F)c2)c1` [Compound A22, N-(3-fluorobenzyl)-2,5-dimethoxybenzamide] the “Herbicidal Activity Piemarker” value (Piemarker [1]) was 1, the “Herbicidal Activity Humulus scandens” value (Humulus scandens [2]) was 1 and the “Herbicidal Activity Green bristlegrass” value (green bristlegrass [3]) was 2 (equivalent to 0 to 2.5% of the weed in the blank control area). For the same compound, the “Herbicidal Activity Amaranthus retroflexus” value (Amaranthus retroflexus [4]) was 1, the “Herbicidal Activity Digitaria sanguinalis” value (Digitaria sanguinalis [5]) was 1 and the “Herbicidal Activity Barnyard grass” value (Barnyard grass [6]) was 1. The “Post-emergence weed control effect, Chenopodium album” value (Chenopodium album) was 1, the “Post-emergence weed control effect, Green bristlegrass” value (green bristlegrass [7]) was 2 (equivalent to 0 to 2.5% of the weed in the blank control area) and the “Post-emergence weed control effect, Amaranthus retroflexus” value (Amaranthus retroflexus [8]) was 1. The “Post-emergence weed control effect, Portulaca oleracea” value (Portulaca oleracea) was 1, the “Post-emergence weed control effect, Goose grass” value (goosegrass) was 2 (equivalent to 0 to 2.5% of the weed in the blank control area) and the “Post-emergence weed control effect, Nutgrass flatsedge” value (nutgrass flatsedge) was 2 (equivalent to 0 to 2.5% of the weed in the blank control area). The “Post-emergence weed control effect, Acalypha australis” value (Acalypha australis) was 2 (equivalent to 0 to 2.5% of the weed in the blank control area), the “Post-emergence weed control effect, Digitaria sanguinalis” value (Digitaria sanguinalis [9]) was 1 and the “Post-emergence weed control effect, Solanum nigrum” value (Solanum nigrum) was 2 (equivalent to 0 to 2.5% of the weed in the blank control area). For the same compound, the “Post-emergence weed control effect, Convolvulus arvensis” value (Convolvulus arvensis) was 1, the “Post-emergence weed control effect, Barnyard grass” value (Barnyard grass [10]) was 2 (equivalent to 0 to 2.5% of the weed in the blank control area) and the “Herbicidal Activity Humulus scandens” value (Humulus scandens [11]) was 4 (equivalent to 5.1 to 10% of the weed in the blank control area). The “Herbicidal Activity Piemarker” value (Piemarker [12]) was 2 (equivalent to 0 to 2.5% of the weed in the blank control area), the “Herbicidal Activity Green bristlegrass” value (green bristlegrass [13]) was 2 (equivalent to 0 to 2.5% of the weed in the blank control area) and the “Herbicidal Activity Barnyard grass” value (Barnyard grass [14]) was 1. For the same compound, the “Herbicidal activity 15 days after treatment Broadleaf weed” value (Broadleaf weed; 15 days after treatment) was 2 (equivalent to 0 to 2.5% of the weed in the blank control area), the “Herbicidal activity 30 days after treatment Broadleaf weed” value (Broadleaf weed; 30 days after treatment) was 1 and the “Herbicidal activity 15 days after treatment Cyperaceae” value (Cyperaceae; 15 days after treatment) was 2 (equivalent to 0 to 2.5% of the weed in the blank control area). The “Herbicidal activity 30 days after treatment Cyperaceae” value (Cyperaceae; 30 days after treatment) was 1, the “Herbicidal activity 15 days after treatment Gramineae” value (Gramineae; 15 days after treatment) was 1 and the “Herbicidal activity 30 days after treatment Gramineae” value (Gramineae; 30 days after treatment) was 1. For the same compound, the “Herbicidal Activity Amaranthus retroflexus” value (Amaranthus retroflexus [15]) was 2 (equivalent to 0 to 2.5% of the weed in the blank control area) and the “Herbicidal Activity Digitaria sanguinalis” value (Digitaria sanguinalis [16]) was 1.

— patent publication US20220330549A1, “USE OF N-BENZYLBENZAMIDE-BASED COMPOUND AS HERBICIDE” (Northwest A&F University, priority 2020, published 2022)
